# Reference: patent publication US6610715B1, “Cathecol hydrazone derivatives, process for preparing the same and pharmaceutical composition containing the same” (Cheil Jedang Corporation, priority 2001, dated 2003)
# System: Phosphodiesterase IV partially purified from human U937 cells
# Test: Inhibition of Phosphodiesterase IV Activity ([3H]cAMP hydrolysis, scintillation counting)
# Format: biochemical
# Conditions: 1.0 uM cAMP, 30° C., 20 minutes
# Protocol: Compounds prepared by Examples 1 through 16 and Rolipram as control were tested on the inhibition of phosphodiesterase IV.
# Phosphodiesterase IV partially purified from human U937 cells, test compound and 1.0 uM cAMP including 0.01 uM[^3H]cAMP were incubated at 30° C. for 20 minutes. The PDE reaction to convert cAMP into AMP was […] by boiling the reaction solution for 2 minutes. AMP was converted into adenosine by adding snake venom nucleotidase and incubating the reaction solution at 30° C. for 10 minutes. While unhydrolyzed cAMPs were bonded to AG1-X2 resin, the [^3H]adenosine in the aqueous solution was quantified by scintillation counting. The results are shown in Table I below, in which the values indicate inhibition (%) of the PDE IV by each test compound.
# [1] = test compound concentration 2 uM
# [2] = test compound concentration 20 uM
Structure (SMILES),Inhibition (%) of the PDE IV [1] [%],Inhibition (%) of the PDE IV [2] [%]
"COc1ccc(/C=N/NC(=O)c2ccncc2)cc1OC1CCCC1 [EXAMPLE 1, (E)-3-cyclopentyloxy-4-methoxybenzaldehyde isonicotinic hydrazone]",38.4,66.7
"CCOC(=O)N/N=C/c1ccc(OC)c(OC2CCCC2)c1 [EXAMPLE 2, (E)-ethyl[(3-cyclopentyloxy-4-methoxyphenyl)methylene]hydrazinoformate]",46.7,63.7
"COc1ccc(/C=N/Nc2ccccc2)cc1OC1CCCC1 [EXAMPLE 3, (E)-3-cyclopentyloxy-4-methoxybenzaldehyde phenylhydrazone]",46.6,80.4
"COc1ccc(/C=N/NC(C)=O)cc1OC1CCCC1 [EXAMPLE 4, (E)-3-cyclopentyloxy-4-methoxybenzaldehyde acetic hydrazone]",51.7,72.1
"COc1ccc(/C=N/NC2=NCCN2)cc1OC1CCCC1 [EXAMPLE 6, (E)-3-cyclopentyloxy-4-methoxybenzaldehyde 2-imidazolinohydrazone]",31.7,58.3
"COc1ccc(/C=N/NC(N)=O)cc1OC1CCCC1 [EXAMPLE 7, (E)-2-[(3-cyclopentyloxy-4-methoxyphenyl)methylene]hydrazinecarboxamide]",66.2,89.7
"COc1ccc(/C=N/NC(N)=S)cc1OC1CCCC1 [EXAMPLE 9, (E)-2-[(3-cyclopentyloxy-4-methoxyphenyl)methylene]hydrazinecarbothioamide]",69.0,81.0
"COc1ccc(/C=N/Nc2ccc(Cl)cc2)cc1OC1CCCC1 [EXAMPLE 10, (E)-3-cyclopentyloxy-4-methoxybenzaldehyde 4chlorophenylhydrazone]",39.3,70.7
"COc1ccc(/C=N/NC(=O)C[N+](C)(C)C)cc1OC1CCCC1 [EXAMPLE 11, (E)-2[(3-cyclopentyloxy-4-methoxyphenyl)methylene]hydrazinecarbonylmethyl(trimethyl)ammonium chloride]",43.3,45.1
"COc1ccc(/C=N/N2CCCCC2)cc1OC1CCCC1 [EXAMPLE 13, (E)-N-piperidino-3-cyclopentyloxy-4-methoxyphenylmethaneimine]",31.4,73.3
"COc1ccc(/C=N/NC(=N)N)cc1OC1CCCC1 [EXAMPLE 14, (E)-2-[(3-cyclopentyloxy-4-methoxyphenyl)methylene]hydrazinecarboximidamide]",14.7,57.7
"COc1ccc(/C=N/Nc2ccccn2)cc1OC1CCCC1 [EXAMPLE 15, (E)-3-cyclopentyloxy-4-methoxybenzaldehyde 2-pyridinylhydrazone]",49.4,63.6
"COc1ccc(/C=N/Nc2ccccc2C(=O)O)cc1OC1CCCC1 [EXAMPLE 16, (E)-3-cyclopentyloxy-4-methoxybenzaldehyde 2-carboxyphenylhydrazone]",42.3,76.6
"COc1ccc(C2CNC(=O)C2)cc1OC1CCCC1 (stereo not shown) [Rolipram, reference compound]",62.5,70.1
